Data on one compound can be found in US9726659B2, “CMPF as a biomarker for diabetes and associated methods” (The Governing Council of the University of Toronto, priority 2012, dated 2017).

For series [1], the system named is islets from injected mice. As to the kind of experiment: Islets isolated from IP injected mice after the OGTT (ex vivo). The series is classed as in vivo. Here is the method:
CD1 mice were injected IP with either vehicle control (black) or CMPF (white). Over the 7-day course of IP injections, mice were monitored for body weight (A), and random-fed blood glucose (B) and plasma insulin (C). […] The lower body weights on day 8 are following a 14-hour fast, immediately prior to the OGTTs. Following 7 consecutive days of CMPF injections, mice were fasted for 14 hrs and OGTTs were performed. […] (n=8 per group, p<0.05).
To assess the effect of in vivo administration of CMPF directly on the beta cells, the islets were isolated from the 3-day and 7-day IP injected mice immediately following the OGTT. […] The reduced total insulin content corresponded to lower insulin mRNA levels (FIG. 7D, 3-day injected used as representative), consistent with the in vitro studies described herein.

For series [2], the system named is murine islets. As to the kind of experiment: qPCR mRNA expression in treated murine islets. It is filed as cell-based. The note with it: 24 hrs. As for the experimental part: First, the effect of CMPF treatment on insulin biosynthesis was investigated to determine if insulin is available to be released upon stimulation. MIN6, murine and human islets were treated with vehicle control, 20 uM and 200 uM CMPF for 4 hrs (MIN6) or 24 hrs (islets), and total insulin content measured. […] To determine the mechanism through which CMPF is reducing total insulin content, quantitative PCR (qPCR) was performed on RNA that was isolated from murine islets treated with either vehicle control or 200 uM CMPF for 24 hrs. […] Total RNA was extracted from 24 hour vehicle or CMPF-treated islets using the Qiagen RNeasy Plus mini kit (Hilden, Germany). Microarray analysis was performed as previously described (Basford et al. 2012) using the Affymetrix Mouse 430 2.0 Gene Chip at the University Health Network microarray center (Toronto, Canada). Significant changes were defined as P<0.05. Microarray data will be available on the NCBI GEO database at the time of publication. Human islet microarray data can be found at GE040709. Reverse transcription from total RNA and quantitative real time PCR (qPCR) analysis was performed as previously described (Basford et al. 2012). Primers were designed using Primer3 software (NCBI). Data were normalized to beta actin mRNA.
Background: Quantitative PCR measures a nucleic acid by following its amplification.

Series [3] has as its system MIN6. Description: Total insulin content in MIN6 cells. It is filed as cell-based, murine. The note with it: 200 uM, 4 hrs, vs vehicle. Here is the method:
In the absence of apoptosis and necrosis, CMPF must be impairing GSIS by causing beta cell dysfunction. First, the effect of CMPF treatment on insulin biosynthesis was investigated to determine if insulin is available to be released upon stimulation. MIN6, murine and human islets were treated with vehicle control, 20 uM and 200 uM CMPF for 4 hrs (MIN6) or 24 hrs (islets), and total insulin content measured. […] Lower total insulin content may be due to either defective insulin processing from proinsulin to mature insulin, or insufficient insulin transcription. To determine the mechanism through which CMPF is reducing total insulin content, quantitative PCR (qPCR) was performed on RNA that was isolated from murine islets treated with either vehicle control or 200 uM CMPF for 24 hrs.

Series [4] can be described thus: Plasma CMPF after IP injection. It is filed as in vivo, CD1 mice. As to conditions: for up to 2 hours but not at 6 hours post-injection, n=4/group. As for the experimental part: CD1 mice were injected IP with either vehicle control (black) or CMPF (white). A) Plasma samples were taken at 10, 30, 60, 120 and 360 minutes post-IP injection and assayed for CMPF. […] Over the 3-day course of IP injections, mice were monitored for body weight (B), random-fed blood glucose (C) and plasma insulin (C). There was no difference in any of these parameters. Following 3 consecutive days of CMPF injections, mice were fasted for 14 hrs and OGTTs were performed.

The test system of series [5] is mouse islets. As to the kind of experiment: Western blotting of treated mouse islets. It is filed as cell-based. Here is the method: CMPF-treated and control mouse islets were lysed in RIPA buffer (Cell Signaling, Danvers, Mass., USA) containing protease inhibitor cocktail (Roche, Mississauga, ON, Canada). Lysates were spun at 12,000 rpm and supernatant was loaded onto a 4-15% SDS-PAGE gradient gel (BioRad, Mississauga, ON, Canada) and transferred onto PVDF membrane using a Turbo Blotter (BioRad). The membrane was probed with the corresponding antibodies, and imaged using Kodak Imager 4000pro (Carestream, Rochester, N.Y., USA).
To determine the mechanism through which CMPF decreases insulin biosynthesis we examined its effect on these key regulators. Under normal conditions, AKT and GSK3β have reciprocal activities. Active pAKT phosphorylates and inactivates GSK3β, preventing phosphorylation of downstream targets (Humphrey et al., 2010). […] FOXO1 is normally sequestered in the cytosol due to phosphorylation by AKT (Kitamura et al., 2005). […] Altered activity of these transcription factors is further confirmed by decreased mRNA levels of key target genes including Inst, transcription factors Pdx1 and Mafa, proinsulin processing enzymes CpE, Pc1 and Pc2, and the glucose transporter Glut2 (Boucher et al., 2006; Kaneto et al. 2008) (FIG. 18a).

In series [6] the test system is MIN6 cells. Description: Annexin V and propidium iodide staining for apoptosis and necrosis. It is filed as cell-based, murine. As to conditions: 20 uM or 200 uM, 4 hrs. Here is the method: A) MIN6 cells were treated for 4 hrs with 0 uM (EtOH vehicle control), 20 uM or 200 uM CMPF prior to being loaded with Annexin V and propidium iodide fluorescent dyes, and counterstained with Hoechst dye. […] B) Primary CD1 islets were dispersed and treated with vehicle control (0 CMPF, black), 20 uM CMPF (grey), or 200 uM CMPF (white) for 48 hours, then stained with Annexin V, Propidium Iodide and Hoechst dye. Quantification of double positive staining was assessed by an Arrayscan VTI HCS reader.
Next the mechanism underlying the observed impairment in GSIS following treatment with CMPF was investigated. To determine whether CMPF was inhibiting GSIS by inducing beta cell apoptosis, Annexin V and Propidium Iodide staining was performed in MIN6 cells treated with vehicle (EtOH), 20 uM or 200 uM CMPF for 4 hrs to look for apoptosis and necrosis respectively. […] MIN6 cells treated with 5 mM H2O2 for 3 hrs were used as a positive control (FIG. 4).

Regarding `CCCc1oc(CCC(=O)O)c(C(=O)O)c1C` [CMPF, 3-carboxy-4-methyl-5-propyl-2-furanpropanoic acid], in series [1] (3 days IP), the “GSIS of isolated islets” value is given as “impaired GSIS”, the “insulin mRNA of isolated islets” value was “decreased insulin mRNA”, the islet size result is “no significant difference” and the “total insulin content of isolated islets” value is on record as “decreased total insulin content”. Further, in series [1] (7 days IP), the “insulin secretion of isolated islets under high glucose” value is given as “significantly reduced insulin secretion” and the “insulin secretion of isolated islets under low glucose” value is “significantly increased insulin secretion”. Further, in series [2] (200 uM), the “CpE mRNA” value is recorded as “significantly lower levels”, the GCK expression result is “trend toward lower expression”, the GLUT2 expression result was “significantly reduced” and the “HNF4a mRNA” value was “significant reduction”. For the same compound, in series [2] (200 uM), the “MAFA mRNA” value is recorded as “significant reduction”, the “PCSK1 mRNA” value is recorded as “trending lower levels”, the “PCSK2 mRNA” value is reported as “trending lower levels” and the “PDX1 mRNA” value is listed as “significant reduction”. Further, the “insulin mRNA” value in series [2] (200 uM) is “significant reduction”. Further, in series [2], the Ucp2 expression entry is listed as “Increased antioxidant gene expression” and the “catalase (Cat) expression” value is recorded as “Increased antioxidant gene expression”. The total insulin content entry in series [3] is listed as “significantly reduced”. Further, the “plasma CMPF level after IP injection” value in series [4] was “significantly elevated”. Also, in series [5] (24 hr treatment), the “AKT (Ser473) phosphorylation” value is recorded as “significantly impaired” and the “GSK3β (Ser9) phosphorylation” value is listed as “significantly impaired”. The “absolute protein levels of PDX1 and FOXO1” value in series [5] (CMPF-treated islets) is on record as “not significantly different”. The “Annexin V and propidium iodide staining (apoptosis, necrosis)” value in series [6] is on record as “No significant staining”.
